Tests used:
[1] = Uptake of Vitamin B12 into cerebrospinal fluid after intranasal and intramuscular administration; assay type: in vivo, human; conditions: intranasal administration compared with intramuscular injections
Excerpt: We conducted a non-blinded, single dose, parallel group study to compare the uptake of Vitamin B12 into the cerebrospinal fluid (CSF) after intranasal and intramuscular administration in healthy male and non-pregnant female volunteers. This study compared CSF levels to plasma levels produced by both formulations.
Thirty-six healthy male and non-pregnant female subjects, age 18 and over, were enrolled in the study. Eighteen subjects received a single intranasal dose of 500 mcg delivered as a 0.1 mL spray and eighteen subjects received a single intramuscular dose of 100 mcg delivered intramuscularly. Each subject visited the clinical site three times in a one-month period. These visits consisted of a screening visit, one dosing visit and a final visit.
After each dosing, each subject underwent lumbar puncture only once, with the retrieval of a total 4.0 mL of CSF (4 tubes, 1.0 mL per tube).
In addition to the above, on the day of dosing 7 mL blood samples were drawn before dosing and post dosing at 5, 10, 15 and 20 minutes, and at 0.5, 1, 1½, 2, 3, 4, 6, and 8 hours post-dose (prior to discharge).
The cerebrospinal fluid was evaluated for total Vitamin B12 content. […]
The levels of vitamin B12 were determined in both the CSF and blood serum using Vitamin B12 concentrations in the CSF will be analyzed for Qualitative determination of Vitamin B12 using a validated TOSOH Nex. […]

[2] = prior art (Merkus); not soluble at concentrations greater than; cited from earlier work

- ratio of vitamin B12 (CSF) to serum, intranasal versus intramuscular [1]: higher
Substance: 5,6-dimethyl-benzimidazolyl cyanocobamide [vitamin B12]
- solubility in an aqueous solution [2]: ≤ 1%

Reference: patent US9415007B2, “Cyanocobalamin low viscosity aqueous formulations for intranasal delivery” (PAR PHARMACEUTICAL INC., priority 2003, dated 2016)
